Measured values reported in patent publication US10287301B2 (Achillion Pharmaceuticals, Inc., priority 2015, dated 2019).

Biological target: Human Factor D (Homo sapiens (Human), UniProt P00746)
Test: Human Factor D Assay
Type: biochemical
Conditions: Human Factor D assay of Example 8; Table 2; read-out: IC50
In short: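 Thioesterase activity monitored with Z-L-Lys-SBzl plus Ellman's reagent (DTNB), each 100 μM final, after 5 min room-temperature compound preincubation of 80 nM human serum Factor D in pH 7.5 Tris (50 mM)/1M NaCl.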

Sequence of Human Factor D (P00746 26-253): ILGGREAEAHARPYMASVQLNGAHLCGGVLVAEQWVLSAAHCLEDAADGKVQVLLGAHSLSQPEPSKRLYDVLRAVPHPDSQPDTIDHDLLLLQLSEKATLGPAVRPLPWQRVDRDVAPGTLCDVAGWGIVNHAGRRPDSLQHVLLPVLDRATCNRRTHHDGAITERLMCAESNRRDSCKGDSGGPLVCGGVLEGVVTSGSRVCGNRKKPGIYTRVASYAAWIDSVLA

CC(=O)c1nn(CC(=O)N2C[C@H](O)C[C@H]2C(=O)Nc2cccc(Br)n2)c2ccc(-c3cnc(C)nc3)cc12 [Compound 231, (2S,4R)-1-(2-(3-Acetyl-5-(2-methylpyrimidin-5-yl)-1H-indazol-1-yl)acetyl)-N-(6-bromopyridin-2-yl)-4-hydroxypyrrolidine-2-carboxamide]
IC50: < 1 µM

CC(=O)c1nn(CC(=O)N2C[C@H](F)C[C@H]2C(=O)NC2CCN(C(=O)c3cc(Cl)c[nH]3)CC2)c2ccc(-c3cnc(C)nc3)cc12 [Compound 232, (2S,4R)-1-(2-(3-acetyl-5-(2-methylpyrimidin-5-yl)-1H-indazol-1-yl)acetyl)-N-(1-(4-chloro-1H-pyrrole-2-carbonyl)piperidin-4-yl)-4-fluoropyrrolidine-2-carboxamide]
IC50: < 1 µM

CC(=O)c1nn(CC(=O)N2C[C@H](F)C[C@H]2C(=O)Nc2cccc(Br)n2)c2ccc(-c3cnc4ccnn4c3)cc12 [Compound 234, (2S,4R)-1-(2-(3-acetyl-5-(pyrazolo[1,5-a]pyrimidin-6-yl)-1H-indazol-1-yl)acetyl)-N-(6-bromopyridin-2-yl)-4-fluoropyrrolidine-2-carboxamide]
IC50: < 1 µM

CC(=O)c1nn(CC(=O)N2C[C@H](F)C[C@H]2C(=O)Nc2cccc(OC(F)(F)F)c2F)c2ccc(-c3cnc4ccnn4c3)cc12 [Compound 235, (2S,4R)-1-(2-(3-acetyl-5-(pyrazolo[1,5-a]pyrimidin-6-yl)-1H-indazol-1-yl)acetyl)-4-fluoro-N-(2-fluoro-3-(trifluoromethoxy)phenyl)pyrrolidine-2-carboxamide]
IC50: < 1 µM

CC(=O)c1nn(CC(=O)N2C[C@H](F)C[C@H]2C(=O)NCc2cccc(Cl)c2F)c2ccc(-c3cnc4ccnn4c3)cc12 [Compound 236, (2S,4R)-1-(2-(3-acetyl-5-(pyrazolo[1,5-a]pyrimidin-6-yl)-1H-indazol-1-yl)acetyl)-N-(3-chloro-2-fluorobenzyl)-4-fluoropyrrolidine-2-carboxamide]
IC50: < 1 µM

CC(=O)c1nn(CC(=O)N2C[C@H](F)C[C@H]2C(=O)Nc2cccc(-c3ccccc3Cl)c2F)c2ccc(-c3cnc4ccnn4c3)cc12 [Compound 237, (2S,4R)-1-(2-(3-acetyl-5-(pyrazolo[1,5-a]pyrimidin-6-yl)-1H-indazol-1-yl)acetyl)-N-(2′-chloro-2-fluorobiphenyl-3-yl)-4-fluoropyrrolidine-2-carboxamide]
IC50: < 1 µM

CC(=O)c1nn(CC(=O)N2[C@@H]3C[C@@H]3C[C@H]2C(=O)Nc2cccc(Br)n2)c2ccc(-c3cnc4ccnn4c3)cc12 [Compound 238, (1R,3S,5R)-2-(2-(3-acetyl-5-(pyrazolo[1,5-a]pyrimidin-6-yl)-1H-indazol-1-yl)acetyl)-N-(6-bromopyridin-2-yl)-2-azabicyclo[3.1.0] hexane-3-carboxamide]
IC50: < 1 µM

CC(=O)c1nn(CC(=O)N2[C@@H]3C[C@@H]3C[C@H]2C(=O)Nc2cccc(OC(F)(F)F)c2F)c2ccc(-c3cnc4ccnn4c3)cc12 [Compound 239, (1R,3S,5R)-2-(2-(3-acetyl-5-(pyrazolo[1,5-a]pyrimidin-6-yl)-1H-indazol-1-yl)acetyl)-N-(2-fluoro-3-(trifluoromethoxy)phenyl)-2-azabicyclo[3.1.0] hexane-3-carboxamide]
IC50: < 1 µM

CC(=O)c1nn(CC(=O)N2[C@@H]3C[C@@H]3C[C@H]2C(=O)NCc2cccc(Cl)c2F)c2ccc(-c3cnc4ccnn4c3)cc12 [Compound 240, (1R,3S,5R)-2-(2-(3-acetyl-5-(pyrazolo[1,5-a]pyrimidin-6-yl)-1H-indazol-1-yl)acetyl)-N-(3-chloro-2-fluorobenzyl)-2-azabicyclo[3.1.0] hexane-3-carboxamide]
IC50: < 1 µM

CC(=O)c1nn(CC(=O)N2C[C@H](F)C[C@H]2C(=O)Nc2cccc(Br)n2)c2ccc(-c3cnc4c(c3)ncn4C)cc12 [Compound 241, (2S,4R)-1-(2-(3-acetyl-5-(3-methyl-3H-imidazo[4,5-b]pyridin-6-yl)-1H-indazol-1-yl)acetyl)-N-(6-bromopyridin-2-yl)-4-fluoropyrrolidine-2-carboxamide]
IC50: < 1 µM

CC(=O)c1nn(CC(=O)N2C[C@H](F)C[C@H]2C(=O)Nc2cccc(Br)n2)c2ccc(-c3ccn4nccc4n3)cc12 [Compound 242, (2S,4R)-1-(2-(3-acetyl-5-(pyrazolo[1,5-a]pyrimidin-5-yl)-1H-indazol-1-yl)acetyl)-N-(6-bromopyridin-2-yl)-4-fluoropyrrolidine-2-carboxamide]
IC50: < 1 µM

CC(=O)c1nn(CC(=O)N2C[C@H](F)C[C@H]2C(=O)Nc2cccc(Br)n2)c2ccc(-c3cnc4cc(C)nn4c3)cc12 [Compound 243, (2S,4R)-1-(2-(3-acetyl-5-(2-methylpyrazolo[1,5-a]pyrimidin-6-yl)-1H-indazol-1-yl)acetyl)-N-(6-bromopyridin-2-yl)-4-fluoropyrrolidine-2-carboxamide]
IC50: < 1 µM

CC(=O)c1nn(CC(=O)N2C[C@H](F)C[C@H]2C(=O)Nc2cccc(Br)n2)c2ccc(N3CCn4c(nnc4C(F)(F)F)C3)cc12 [Compound 244, (2S,4R)-1-(2-(3-acetyl-5-(3-(trifluoromethyl)-5,6-dihydro-[1,2,4]triazolo[4,3-a]pyrazin-7(8H)-yl)-1H-indazol-1-yl)acetyl)-N-(6-bromopyridin-2-yl)-4-fluoropyrrolidine-2-carboxamide]
IC50: < 1 µM

CC(=O)c1nn(CC(=O)N2C[C@H](F)C[C@H]2C(=O)Nc2cccc(Br)n2)c2ccc(-c3cnc4ncccn34)cc12 [Compound 245, (2S,4R)-1-(2-(3-acetyl-5-(imidazo[1,2-a]pyrimidin-3-yl)-1H-indazol-1-yl)acetyl)-N-(6-bromopyridin-2-yl)-4-fluoropyrrolidine-2-carboxamide]
IC50: < 1 µM

CSc1cccc(NC(=O)[C@@H]2C[C@@H](F)CN2C(=O)Cn2nc(C(C)=O)c3cc(-c4cnc(C)nc4)ccc32)n1 [Compound 246, (2S,4R)-1-(2-(3-acetyl-5-(2-methylpyrimidin-5-yl)-1H-indazol-1-yl)acetyl)-4-fluoro-N-(6-(methylthio)pyridin-2-yl)pyrrolidine-2-carboxamide]
IC50: < 1 µM

CC(=O)c1nn(CC(=O)N2C[C@H](F)C[C@H]2C(=O)Nc2cccc(F)n2)c2ccc(-c3cnc(C)nc3)cc12 [Compound 247, (2S,4R)-1-(2-(3-acetyl-5-(2-methylpyrimidin-5-yl)-1H-indazol-1-yl)acetyl)-4-fluoro-N-(6-fluoropyridin-2-yl)pyrrolidine-2-carboxamide]
IC50: < 1 µM

CC(=O)c1nn(CC(=O)N2C[C@H](F)C[C@H]2C(=O)Nc2cccc(Br)n2)c2ccc(-c3ccc4ncnn4c3)cc12 [Compound 248, (2S,4R)-1-(2-(5-([1,2,4]triazolo[1,5-a]pyridin-6-yl)-3-acetyl-1H-indazol-1-yl)acetyl)-N-(6-bromopyridin-2-yl)-4-fluoropyrrolidine-2-carboxamide]
IC50: < 1 µM

CC(=O)c1nn(CC(=O)N2C[C@@H](O)C[C@H]2C(=O)Nc2cccc(Br)n2)c2ccc(-c3cnc(C)nc3)cc12 [Compound 249, (2S,4S)-1-(2-(3-Acetyl-5-(2-methylpyrimidin-5-yl)-1H-indazol-1-yl)acetyl)-N-(6-bromopyridin-2-yl)-4-hydroxypyrrolidine-2-carboxamide]
IC50: < 1 µM

CC(=O)c1nn(CC(=O)N2CC(=O)C[C@H]2C(=O)Nc2cccc(Br)n2)c2ccc(-c3cnc(C)nc3)cc12 [Compound 250, (S)-1-(2-(3-Acetyl-5-(2-methylpyrimidin-5-yl)-1H-indazol-1-yl)acetyl)-N-(6-bromopyridin-2-yl)-4-oxopyrrolidine-2-carboxamide]
IC50: < 1 µM

NC(=O)c1nn(CC(=O)N2C[C@H](F)C[C@H]2C(=O)Nc2cccc(Br)n2)c2ccc(-c3[nH]nnc3-c3cncnc3)cc12 [Compound 251, 1-(2-((2S,4R)-2-(6-bromopyridin-2-ylcarbamoyl)-4-fluoropyrrolidin-1-yl)-2-oxoethyl)-5-(4-(pyrimidin-5-yl)-1H-1,2,3-triazol-5-yl)-1H-indazole-3-carboxamide]
IC50: < 1 µM

COCCN(C)CCN1CC(NC(=O)[C@@H]2C[C@@H](F)CN2C(=O)Cn2nc(C(C)=O)c3cc(-c4cnc(C)nc4)ccc32)CC1=O (stereo partly drawn) [Compound 254, (2S,4R)-1-(2-(3-acetyl-5-(2-methylpyrimidin-5-yl)-1H-indazol-1-yl)acetyl)-4-fluoro-N-(1-(2-((2-methoxyethyl)(methyl)amino)ethyl)-5-oxopyrrolidin-3-yl)pyrrolidine-2-carboxamide]
IC50: > 10 µM

CC(=O)c1nn(CC(=O)N2CC(F)(F)C[C@H]2C(=O)Nc2cccc(Br)n2)c2ccc(-c3cnc(C)nc3)cc12 [Compound 255, (S)-1-(2-(3-acetyl-5-(2-methylpyrimidin-5-yl)-1H-indazol-1-yl)acetyl)-N-(6-bromopyridin-2-yl)-4,4-difluoropyrrolidine-2-carboxamide]
IC50: < 1 µM

CC(=O)c1nn(CC(=O)N2C[C@H](F)C[C@H]2C(=O)Nc2cccc(OC(F)(F)F)c2F)c2ccc(-c3cnc4cc(C)nn4c3)cc12 [Compound 256, (2S,4R)-1-(2-(3-acetyl-5-(2-methylpyrazolo[1,5-a]pyrimidin-6-yl)-1H-indazol-1-yl)acetyl)-4-fluoro-N-(2-fluoro-3-(trifluoromethoxy)phenyl)pyrrolidine-2-carboxamide]
IC50: < 1 µM

CC(=O)c1nn(CC(=O)N2[C@@H]3C[C@@H]3C[C@H]2C(=O)Nc2cccc(Br)n2)c2ccc(-c3cnc4cc(C)nn4c3)cc12 [Compound 257, (1R,3S,5R)-2-(2-(3-acetyl-5-(2-methylpyrazolo[1,5-a]pyrimidin-6-yl)-1H-indazol-1-yl)acetyl)-N-(6-bromopyridin-2-yl)-2-azabicyclo[3.1.0] hexane-3-carboxamide]
IC50: < 1 µM

CC(=O)c1nn(CC(=O)N2C[C@H](F)C[C@H]2C(=O)Nc2nc(Cl)cs2)c2ccc(-c3cnc(C)nc3)cc12 [Compound 258, (2S,4R)-1-(2-(3-acetyl-5-(2-methylpyrimidin-5-yl)-1H-indazol-1-yl)acetyl)-N-(4-chlorothiazol-2-yl)-4-fluoropyrrolidine-2-carboxamide]
IC50: < 1 µM

CC(=O)c1nn(CC(=O)N2C[C@H](F)C[C@H]2C(=O)Nc2cccc(Br)n2)c2ccc(-c3cnc(C4CC4)nc3)cc12 [Compound 259]
IC50: < 1 µM
